Experiments:
[1] = Chromatographic compatibility analyses (cation exchange, size exclusion, BAK method); type: physicochemical; conditions: no interference in cation exchange, size exclusion and BAK chromatography; PBS pH 7.4
Protocol: A formulation was prepared having 0.03% w/v ranpirnase together with oxymetazoline or brimonidine. The formulations were analyzed by chromatography to verify whether the therapeutic agent interferes with ranpirnase. Several chromatography methods were employed, including cation exchange and size exclusion chromatography, as well as benzalkonium chloride (BAK) analysis.
(§1) For cation exchange chromatography, analysis was performed with the following solutions: diluent (PBS pH 7.4), oxymetazoline HCl (0.5 mg/mL), placebo, and ranpirnase. Oxymetazoline HCl (0.5 mg/mL) solution was prepared in diluent. Both ranpirnase and its placebo were removed from the refrigerator, warmed to room temperature, and vialed into HPLC vials.
as §1, with “size exclusion” for “cation exchange”, “on” for “with”
The benzalkonium chloride (BAK) analysis was performed on the following solutions: diluent (PBS pH 7.4), oxymetazoline HCl (0.05 mg/mL), placebo, and ranpirnase. Oxymetazoline HCl (0.5 mg/mL) solution (10×) was diluted to 0.05 mg/mL in diluent. […]

[2] = tested on: epidemic keratoconjunctivitis (EKC); conditions: eye drops tested clinically; cited from earlier work
NFκB = conditions: in vitro study; cited from earlier work

Molecule: Cc1cc(C(C)(C)C)c(O)c(C)c1CC1=NCCN1 [oxymetazoline, 3-(4,5-dihydro-1H-imidazol-2-ylmethyl)-2,4-dimethyl-6-tert-butyl-phenol]
- compatibility of formulating with ranpirnase in an ophthalmic formulation [1]: compatibility

Molecule: Nc1ccn(C[C@@H](CO)OCP(=O)(O)O)c(=O)n1 [cidofovir]
- clinical benefit in epidemic keratoconjunctivitis [2]: no definitive benefit was observed

B1: ranpirnase: amphibian ribonuclease from Rana pipiens oocytes/early embryos, RNase A superfamily, about 12 kD (protein, UniProt P22069 1-104, looked up)
Protein P-30: QDWLTFQKKHITNTRDVDCDNIMSTNLFHCKDKNTFIYSRPEPVKAICKGIIASKNVLTTSEFYLSDCNVTSRPCKYKLKKSTNKFCVTCENQAPVHFVGVGSC
- translocation of NFκB into the nucleus (NFκB): inhibits translocation of NFκB into the nucleus
